# Measurements: US11952328B2, “Selective ship inhibitors for treating disease” (THE RESEARCH FOUNDATION FOR THE STATE UNIVERSITY OF NEW YORK, priority 2018, dated 2024)
# “Also recorded” adds a separate entry of the source.
# What was measured:
# RMA-Rael cells = assay: Acute rejection of RMA-Rael lymphoma, tumor burden by peritoneal lavage; type: in vivo, mice
# Procedure: FIGS. 4A-4D show the effects of SHIP1 inhibition using 3AC in mice. 5×10^5 GFP-expressing RMA-Rael cells were injected into C57BL/6 (FIG. 4A), RAG1−/− (FIG. 4B), or into C57BL/6 hosts (FIG. 4C-4D) with antibody depleted (NK) or intact (Iso) NK cell compartment. Mice were treated with either SHIP inhibitor or vehicle for two days. Tumor burden was determined by flow cytometric analysis of peritoneal cavity contents recovered by peritoneal lavage performed on the third day. Graphs represent pooled data from two independent experiments using at least 4 SHIP inhibitor-treated mice and 4 vehicle-treated mice in each experiment. FIG. 4A (p=0.0433; Mann-Whitney U test). FIG. 4B (p=0.0007; Mann-Whitney U test). FIG. 4C (p=0.0153; Unpaired t test with Welch's correction). FIG. 4D (p=0.9188. Mann-Whitney U test).
# To determine if acute SHIP inhibitor treatment promoted in vivo clearance of tumor cells expressing a ligand for such receptors, the ability of SHIP inhibitor treatment to increase host rejection of tumor targets in vivo using the C57BL/6-derived H2b T cell lymphoma, RMA-Rael was analyzed. NK cell mediated rejection of RMA- Rael cells requires perforin expression and is independent of IFNγ production, and thus this assay allows for interrogation of a different NK cell effector function than that analyzed in FIG. 3 (Hayakawa, Y. et al., Cutting edge: tumor rejection mediated by NKG2D receptor-ligand interaction is dependent upon perforin. J Immunol. (2002); 169: 5377-538). Mice were challenged with syngeneic tumor cells followed by treatment with 3AC or vehicle for 2 consecutive days. On the third day peritoneal lavage was performed to evaluate tumor burden. […] To assess whether NK cells contributed to acute tumor rejection the same experiment using NK cell depleted C57BL/6 hosts (DNK) was performed. […] This increase in tumor burden was not seen in vehicle treated mice that were also depleted of NK cells (FIG. 4D).
# tumor = assay: Adoptive transfer of hematolymphoid cells from 3AC treated long-term survivors, survival after tumor challenge; type: in vivo, mice; details: cells from tumor challenged, 3AC treated long-term surviving donor vs naive donor; recipients not treated
# From the text: To test for continued presence of such immunity, hematolymphoid cells were adoptively transferred from either a nave donor or from a tumor challenged, 3AC treated, long-term surviving (primed) donor into nave C57BL/6 hosts.
# [1] = test system: CT26 colon carcinoma cells; assay: Subcutaneous CT26 colon carcinoma model; type: in vivo, BALB/C mice
# Procedure: FIG. 7A and FIG. 7B show CT26 (FIG. 7A) and MC-38 (FIG. 7B) viability following in vitro treatment with 3AC for 24 h at indicated doses. Relative viability is expressed as frequency compared to solvent only treated cells. Kill curve summarizes pooled data from three independent experiments using six replicate wells/concentration with mean±SEM indicated. BALB/C mice were challenged with subcutaneous injection of CT26 colon carcinoma cells in the right flank. Mice were treated with either 2 consecutive days of 3AC or vehicle control each week as in FIG. 4A. Tumor size at […] 28 days (FIG. 7C), and tumor weight on day 28 determined after dissection of tumor (FIG. 7E). […] C57BL/6 mice were challenged with subcutaneous injection of MC-38 colon carcinoma cells in the right flank. Mice were treated with either 2 consecutive days of SHIP inhibitor or vehicle control each week as in FIG. 4A. Tumor size at 14, 21 and 25 days (FIG. 7D), and tumor weight (FIG. 7F) on day 25 were determined after dissection of tumor. […] FIG. 7A (n=18 per group. One-way ANOVA with Dunnett's multiple comparisons. 0 μM vs. 20 μM Adjusted p value=0.0463. All other concentrations of SHIP inhibitor compared with solvent only N.S.). FIG. 7B (n=18 per group. One-way ANOVA with Dunnett's multiple comparisons. All concentrations of SHIP inhibitor compared with solvent only N.S.). FIGS. 7C-7F graphs represent data from one of two independent experiments. FIG. 7C (n=10. Day 14 p<0.0001, Unpaired t test with Welch's correction. Day 21 p<0.0001, two-tailed student's t-test. Day 28 p<0.0001, two-tailed Student's t-test). FIG. 7E (n=10. P<0.0001, two-tailed Student's t-test) FIG. 7D (n=10. Day 14 p=0.0005, two-tailed student's t-test. Day 21 p=0.0009, two-tailed Student's t-test. Day 25 p=0.0009, two-tailed student's t-test). FIG. 7F (n=10. P=0.0067, two-tailed student's t-test).
# Colorectal cancer is the second leading cause of cancer mortality in the United States (Siegel, R. L. et al., Colorectal cancer statistics, 2017. CA Cancer J Clin. (2017)). […]
# NK cell compartment = details: uninterrupted, extended-duration treatment, six days each week; Fernandes et al. 2015; cited from earlier work
structure (smiles),measurement,setting,value
"CC(C)CCC[C@@H](C)[C@H]1CC[C@H]2[C@@H]3CCC4C[C@H](N)CC[C@]4(C)[C@H]3CC[C@]12C (stereo partly drawn) [Compound 3AC, 3-α-aminocholestane]",tumor rejection,RMA-Rael cells; 3AC-treated hosts with intact NK cell compartment vs 3AC hosts depleted of NK cells,significantly greater tumor rejection
same,tumor burden,"RMA-Rael cells; C57BL/6 hosts depleted of NK cells or not, 3AC vs vehicle",profound reduction of tumor burden; also recorded: large reduction in tumor burden
same,lymphoma burden,"RMA-Rael cells; C57BL/6 hosts, 5×10^5 RMA-Rael, 2 consecutive days treatment, lavage on third day, vs vehicle",dramatic reduction
same,survival of recipients of primed hematolymphoid cells,tumor,significantly increased survival
same,tumor weight,"[1]; day 28, vs vehicle",significant reduction
same,tumor size,"[1]; two consecutive days each week, days 14, 21, 28, vs vehicle",significant reduction
same,histological analysis (H&E) of tumors,[1]; vs vehicle,prominent zones of tumor cell death
same,NK cell compartment function (acute rejection of MHC-I mismatched BM graft),NK cell compartment,disabled NK cell compartment
